This is an account of results in ChEMBL document CHEMBL1152047, “(cis)-3-methyl-1,5-benzothiazepine-4-ones: potent analogs of the calcium channel blocker diltiazen” (Bioorg Med Chem Lett, 1993).

The species named for the assay is Oryctolagus cuniculus. As to the kind of experiment: Vasorelaxant potency determined by relaxation of potassium depolarized rabbit aortic strips. The format is functional. Particulars: Aorta.
Regarding `COc1ccc([C@@H]2Sc3ccccc3N(CCN(C)C)C(=O)[C@@H]2C)cc1`, the half-maximal inhibitory concentration (IC50) (usually the concentration at which inhibition is half-maximal) was 82 nM.
For the compound `COc1ccc([C@@H]2Sc3cc(OC)ccc3N(CCN(C)C)C(=O)[C@@H]2OC(C)=O)cc1`, the IC50 was 120 nM.
`COc1ccc([C@@H]2Sc3cc(C(F)(F)F)ccc3N(CCN(C)C)C(=O)[C@@H]2C)cc1` gave an IC50 of 22 nM.
In the case of `COc1ccc([C@@H]2Sc3cc(OC)ccc3N(CCN(C)C)C(=O)[C@@H]2C)cc1` it was 10 nM.
